In patent publication US20160310417A1, “Formulations and Methods For Targeted Ocular Delivery of Therapeutic Agents” (Emory University, priority 2013, published 2016):

Tests used:
IOP in the rabbit eye = assay: Intraocular pressure (IOP) pharmacodynamics in normotensive rabbit, tonometer; assay type: in vivo, New Zealand White rabbits; details: for IOP decrease, treated eye: within 1 hour
[1] = test system: corneal neovascularization; assay: Suture-induced corneal neovascularization model, neovascularization area by image analysis; assay type: in vivo, New Zealand rabbits; details: for average neovascularization area lower compared to no treatment group: MN-1bolus: intrastromal 1.1 μg, single microneedle; for reduction of neovascularization compared to untreated eye: SC-high: subconjunctival injection 2500 μg bolus on day 4
Method: All animal studies adhered to the ARVO statement for the Use of Animals in Ophthalmic and Vision Research and were approved by the Georgia Institute of Technology Institutional Animal Care and Use Committee (IACUC). Male and female New Zealand rabbits (2.2-2.5 kg) were anesthetized with ketamine (17 mg/kg), xylazine (8.5 mg/kg) and acepromazine (0.5 mg/kg) subcutaneously. Following topical administration of 0.5% proparacaine hydrochloride to minimize discomfort, a single 7.0-gauge silk suture (Ethicon TG140, Blue Ash, Ohio) was placed at midstromal depth 1 mm away from the limbus of the rabbit cornea to generate corneal neovascularization associated with minor traumatic injury. This silk suture was left in the rabbit cornea for the duration of the experiment to induce neovascularization. For each animal, a suture was placed in one eye and the companion eye was left untreated.
During the experiment, the rabbit eye was imaged using a digital camera (Cannon Rebel Tli, Melvile, N.Y.) with macroscopic lens (Cannon MP-E 65 mm) at 3× magnification every two days after placement of the suture. The area of neovascularization was quantified using Adobe Photoshop (Adobe, Jan Jose, Calif.).
Prior to all treatment procedures except for topical delivery, rabbits were anesthetized with ketamine (6 mg/kg), xylazine (4 mg/kg) and acepromazine (0.25 mg/kg) subcutaneously. A reduced dose of anesthesic compared to the suture insertion procedure was used to reduce possible stress to the animals. A single drop of topical proparacaine ophthalmic solution was given as anesthesia. The duration of each study was 18 days and, after the suture insertion at the beginning of the experiment, 4 days were allowed for neovascularization to develop. All the treatments were done on day 4 except as indicated below.
The high-dose group (SC-high) received 2500 μg of bevacuzumab (in 100 μL, i.e., Avastin). The low-dose group (SC-low) received 4.4 μg of bevacuzumab (Avastin was diluted with HBSS to 100 μL).

[2] = Intrastromal delivery of bevacizumab from coated microneedles into rabbit cornea in vivo (ELISA)
rabbit cornea = assay: Safety of intrastromal delivery: corneal surface inspection and histology; assay type: in vivo
Source text: To identify possible microanatomical changes after intrastromal delivery using microneedles, we conducted a histological safety study using four study groups: (i) The untreated group received no suture and no other treatments. (ii) The suture-only group received a suture at day 0, but no other treatments. (iii). The suture with non-coated microneedles group received a suture on day 0 and four non-coated microneedles inserted at the site of the suture on day 4. […] Animals were sacrificed on days 1, 6, 10 and/or 18 for histological analysis. Suture placement and microneedle application were carried out as described above. High magnification images were taken every day in all study groups to assess possible gross corneal damage. Corneal tissues were fixed in 10% formalin and embedded in paraffin. Hematoxylin-eosin (HE) or periodic acid-Schiff (PAS) staining was performed.
The rabbit corneas with and without microneedle treatment and with and without suture placement were evaluated to assess the safety of microneedle insertion by both magnified inspection of the corneal surface in vivo and histological examination of tissue sections obtained at various times after microneedle treatment Immediately after insertion and removal of the microneedle, a small puncture in the corneal epithelium was evident with a size on the order of 200 μm (data not shown). […]

CC(C)OC(=O)CCC/C=C\C[C@@H]1[C@@H](CC[C@@H](O)CCc2ccccc2)[C@H](O)C[C@@H]1O [latanoprost]
change in IOP (IOP in the rabbit eye; standard human dose of 2.5 μg, rabbit model): no change in IOP was observed

Bevacizumab
average neovascularization area lower compared to no treatment group ([1]; day 4, day 10): 34% | average neovascularization area lower compared to no treatment group ([1]; day 4, day 18): 10% | reduction of neovascularization area ([1]; MN-1bolusx3: intrastromal 1.1 μg on days 4, 6 and 8 (total 3.3 μg), day 10): 50% | reduction of neovascularization area compared to untreated eyes ([1]; MN-4bolus: intrastromal 4.4 μg, four coated microneedles, day 4, day 10): 65% | reduction of neovascularization compared to untreated eyes ([1]; MN-hollow: intrastromal 50 μg (2 μL of 25 μg/μL) by hollow microneedle, day 4, day 10): 74% | reduction of neovascularization compared to untreated eye ([1]; day 10): 62% | reduction of neovascularization compared to untreated eye ([1]; day 18): 29% | effect on neovascularization compared to untreated eyes ([1]; SC-low: subconjunctival injection 4.4 μg bolus on day 4): no significant effect | reduction of neovascularization compared to untreated eyes ([1]; TOP: topical eye drops 3 per day from day 4, total 52,500 μg, day 18): 6% | coated bevacizumab delivered into the cornea ([2]; coated microneedles, 10 dip coats, inserted 60 sec, rabbit cornea in vivo): 52% | amount of bevacizumab delivered per microneedle ([2]; microneedles coated with 20 dips): 1.14 ± 0.11 µg | corneal histology, sutured eyes with versus without microneedle treatment (rabbit cornea; 1.1 μg bevacizumab by microneedle four days after suture): no notable differences | corneal surface after treatment with bevacizumab-coated microneedles (rabbit cornea; magnified inspection in vivo, daily over 18 days): only a microscopic puncture in the corneal epithelium that disappeared within one day and was not associated with any complications

FC(F)OC(Cl)C(F)(F)F (stereo not shown) [isoflurane]
time for effects on IOP to reverse (IOP in the rabbit eye; after inhalation stopped): 15 to 30 min | IOP elevation (IOP in the rabbit eye; during 15 min inhalation of escalating dose): ~5 mmHg

CS(=O)(=O)NC(=O)CCC/C=C\C[C@H]1C(=O)C[C@@H](O)[C@@H]1/C=C/[C@@H](O)COc1ccccc1 [sulprostone, Sulprostone]
duration of ocular hypotension, treated eye (IOP in the rabbit eye; single topical eye drop 2.5 μg): about 8 hours | maximum IOP decrease, treated eye (IOP in the rabbit eye; single topical eye drop 2.5 μg, at approximately 2 hours): ~3.4 mmHg | ratio of topical to supraciliary dose for similar pharmacodynamic response (AUCPD comparison) (IOP in the rabbit eye; sulprostone, topical 2.5 μg vs supraciliary, Equation (2)): 101 | persistence of ocular hypotension, treated eye (IOP in the rabbit eye; supraciliary 0.005 μg in 10 μL): approximately 6 hours | peak IOP drop, treated eye (IOP in the rabbit eye; supraciliary 0.005 μg in 10 μL, at 1 hour): ~2.8 mmHg | persistence of IOP decrease (IOP in the rabbit eye; supraciliary 0.025 μg in 10 μL): at least 9 hours | IOP decrease, treated eye (IOP in the rabbit eye; supraciliary 0.025 μg in 10 μL): ~3.1 mmHg

brimonidine tartrate
supraciliary dose for similar pharmacodynamic response, fold less than topical delivery (AUCPD) (IOP in the rabbit eye; brimonidine, topical 75 μg vs supraciliary): 115 fold | time for IOP to return to normal (IOP in the rabbit eye; single topical drop 75 μg): ≤ 6 h | peak IOP reduction, treated eye (IOP in the rabbit eye; single topical drop 75 μg, at 2 hours): approximately 4 mmHg | IOP changes in treated and contralateral eyes (IOP in the rabbit eye; supraciliary 0.015 μg in 10 μL): no significant IOP changes | persistence of IOP drop (IOP in the rabbit eye; supraciliary 0.75 μg in 10 μL): about 5 hours | peak IOP drop, treated eye (IOP in the rabbit eye; supraciliary 0.75 μg in 10 μL, at 2 hours): ~3 mmHg | persistence of IOP decrease (IOP in the rabbit eye; supraciliary 1.5 μg in 10 μL): about 9 hours | IOP decrease, treated eye (IOP in the rabbit eye; supraciliary 1.5 μg in 10 μL): ~3.3 mmHg
